From article PMC10286459 (Cell & Bioscience, 2023)
Non-standard residues stand in square brackets, D forms with d. Residues, ends and D or L forms follow the SMILES beside them.

How the values were obtained:
[1] = target: T1, mouse Foxm1 (Mus musculus, UniProt O08696); test: Biotin-peptide Pulldown in 4T1 cell lysates; assay type: binding; settings: biotin-labeled, 20 µM, 4T1 cell lysates (500 µg); Fig. S18B
T1 construct: endogenous in cells; host or cells: 4T1 mouse breast cancer cell lysate

[2] = H&E staining of organs after repeated injection; assay type: in vivo, mouse; settings: ICR/JCL mice, 30 mg/kg intraperitoneal once every two days for three weeks
Description: One week later, the animals’ different organs were harvested and subjected to tissue sectioning and H&E staining. Photos were taken by inverted microscope (400×, Nikon TE2000). […] The mice’s diet and activity were observed continuously for 14 days. […] Water and PBS were used as hemolysis positive and negative controls, respectively. The absorbance of the samples was measured at 540 nm and used to calculate the Hemolysis rate % = [(OD Sample - OD Negative) / (OD Positive - OD Negative)] × 100%. E Immunogenicity analysis of M1-21. […] Blood samples were collected from mice at different time points (Week 2 to Week 8) and the absorption of anti-M1-21 antibody in serum (1:1000 dilution) was measured by ELISA. HRP-conjugated anti-mouse IgG was used as an ELISA secondary antibody.

[3] = tested on: MCF-10A cells; settings: 0-50 µM, 72 h, trypan blue, Fig. S11
Description: 72 h Later, trypan blue staining (0.4%) was added to each well and incubated for another 3 min and the cells were fixed at 4% paraformaldehyde for imaging. The number of viable cells was counted by ImageJ software to calculate the cell viability of each well. The correspondence between cell viability and peptide concentration was plotted by GraphPad software.
After processing time, viable cells were counted by trypan blue staining (0.4% w/v). 3 Minutes later, cells incubated with the staining solution were washed and fixed at 4% paraformaldehyde for imaging. The number of viable cells was counted by ImageJ software to calculate the cell viability of each well. The relative cell viability versus the concentration of peptide was plotted and IC50 (µM) was calculated by GraphPad software.

[4] = tested on: MDA-MB-231 cells; settings: Biotin-M1-21 20 µM, 4 h, cytosol and nuclear protein samples, Western blotting
[5] = target: FOXM1:LIN9 or FOXM1: B-MYB (Homo sapiens, UniProt Q08050); test: Co-IP in 231-Flag-FOXM1-Ind cells; settings: 10, 20 µM for 6 h, dose-dependent
Description: (§1) Cell lysates (500 µg) were extracted and incubated with anti-Flag magnetic beads to pull down Flag-FOXM1/proteins complexes. […] 5% of cell lysates (25 µg) were used as input controls.
(§2) For Co-IP, IP lysate buffer was used to extract total protein. 500 µg protein lysates were incubated with 20 µl of Anti-Flag Magnetic Beads (Bimake, USA) for Flag-FOXM1 proteins at 4 °C for 3 h. The beads were washed 5 times with pre-cooled 1×PBS and subjected to Western blotting.

[6] = target: interaction between FOXM1 and β-catenin (Homo sapiens, UniProt Q08050); test: Co-IP in 231-Flag-FOXM1-Ind cells; settings: 10, 20 µM for 6 h
Description: as §1, §2

[7] = tested on: MDA-MB-231 engrafted tumors; test: MDA-MB-231 tumor-engrafted BALB/c nude mice
Description: F BALB/c nude mice (female, 6 weeks old) were subcutaneously injected with MDA-MB-231 cells (1 × 10^6 cells/mouse). […] The volume of engrafted tumors was measured every two days and growth curves were obtained at the end of the experiment. The tumor volume (V) was calculated by: V = length × diameter^2 × 1/2. G Images and weight of engrafted tumors on Day 19. […] Number of repetitions = 3.
BALB/c nude mice and BALB/c wild-type mice (female, 6 weeks old) were purchased from Hunan SJA Laboratory Animal Co., Ltd. (Changsha, China). […] BALB/c nude mice were injected subcutaneously with MDA-MB-231 cells (1 × 10^6 cell/mouse). […] Tumor size was measured every two days. The tumor volume (V) was calculated by: V = length × diameter^2 × 1/2. Cancer tissue from the animals was harvested for imaging and weighing on Day 19.
B The lysates of the harvested cancer tissues were obtained and the protein levels of FOXM1, CDC25B, and PLK1 were detected by Western blotting. β-actin was used as a loading control. ImageJ software was used to calculate the gray value of the bands, and each point represented the value of protein content in the samples.

[8] = tested on: spontaneous breast cancers; test: Spontaneous breast cancer FVB/N MMTV-PyVT mice
Description: B Cancer tissue was harvested on Day 29 for imaging. The weight of cancer tissue was measured for GraphPad analysis. C The representative sections of the cancer samples of panel A were immunostained with anti-KI-67 antibody (1:200), and anti-CDC25B antibody (1:200) followed by microscope imaging (200×, Nikon TE2000). Scale bar: 200 μm.
FVB/N-Tg(MMTV-PyVT)634Mul/J transgenic mice [46] were purchased from The Jackson Laboratory (Bar Harbor, ME, USA). […] The mice were photographed every week thereafter. Cancer tissue from the animals was harvested on Day 29. The weight of the total cancer tissue from each mouse was measured and immunostaining sections of the cancer sample were performed for selected proteins.
The mice were imaged at different time points after treatment (Week 0, 1, 2, and 3). The number of tumors observed in each mouse was counted.

[9] = tested on: − 1.4 kb promoter of PLK1; test: Dual luciferase reporter, CHR-containing promoter; settings: HEK-293T, PLK1 pro(-1.4 kb)-Luc with pCMV-FOXM1; 5, 10, 20 µM for 24 h; n = 3
Description: (§3) C Reporter plasmids containing the luciferase gene downstream of the 6×FOXM1 binding sequence (6×FOXM1 Binding-Luc, 0.4 µg) or the − 1.8 kb CDC25B promoter (CDC25B pro(-1.8 kb)-Luc, 0.4 µg) were co-transfected with pCMV-FOXM1 (0.6 µg) into HEK-293T cells, plus pRL-CMV plasmid (20 ng/well) as a loading control. […] Then cell lysates were prepared and used for the measurement of dual Luciferase activities. Number of repetitions = 3. […] F Reporter plasmids containing the luciferase gene downstream of the − 1.4 kb PLK1 promoter (PLK1 pro(-1.4 kb)-Luc, 0.4 µg) were co-transfected with pCMV-FOXM1 (0.6 µg) into HEK-293T cells, plus pRL-CMV plasmid (20 ng/well) as loading control. […] Then cell lysates were prepared and used to measure dual Luciferase activity. Number of repetitions = 3.
(§4) HEK-293T cells (1×10^5 cells/well in 12-well plates) were transfected (EZ Trans, LIFE iLAB BIO, China) with certain luciferase reporter vectors (0.4 µg) and expression vector (0.6 µg) (or control plasmid (0.6 µg)). pRL-CMV plasmid (20 ng) was used as loading control for each transfection. 8 Hours after transfection, the medium was replaced and inhibitory peptides (or control peptide) with different concentrations were added. Finally, luciferase activity was measured 48 hours later with the Dual luciferase Assay system (Promega, USA) according to the manufacturer's instructions.

[10] = tested on: TCF/LEF-binding promoter; test: Dual luciferase reporter, TCF/LEF-binding promoter; settings: HEK-293T; 5, 10, 20 µM for 24 h; n = 3
Description: as §3, §4

[11] = tested on: 4T1-Luc-GFP cells; test: 4T1-Luc-GFP metastasis tracing in wild-type BALB/c mice; settings: 15 or 30 mg/kg intraperitoneal every two days
Description: D Wild-type BALB/c mice were tail-vein injected with 4T1-Luc-GFP cells (1 × 10^6 cells/mouse). […] E Different organs of representative mice were harvested on Day 21 and fluorescent imaging was performed as described above. F The D panel mouse survival statistic curves were obtained by the Mantel-Cox estimator with log rank test
Wild-type BALB/c mice were injected with 4T1-Luc-GFP cells (1 × 10^6 cells/mouse) via the tail vein. […] Different organs of representative mice were harvested on Day 21 for luminaire imaging. When the mice lost mobility and had difficulty eating, the mice were considered near death and terminated according to animal welfare. The survival statistic curve was obtained by the Mantel-Cox estimator with the log rank test.

[12] = tested on: MDA-MB-231 cells; test: mRNA and protein levels of marker and target genes (qPCR, Western blotting)
Description: The levels of mRNA or protein of E-cadherin (E-cad), Vimentin (VIM), and N-cadherin (N-cad) were measured by qPCR or Western blotting, respectively. GAPDH or β-actin was used as a loading control for mRNA or protein. mRNA values represented the mean ± SD of three replicates, and significance was calculated using unpaired t test. *P < 0.05; **P < 0.01; ***P < 0.001
The mRNA levels of PLK1, CDC25B, and Vimentin (VIM) were measured by qPCR. GAPDH was used as a loading control. […] The protein levels of PLK1, CDC25B, and Vimentin (VIM) were measured by Western blotting. β-actin was used as a loading control.
FOXM1 mRNA was detected by qPCR. GAPDH was used as a loading control.

[13] = 20 mg/kg intraperitoneal once daily for 28 days, Day 29
[14] = MDA-MB-231, 10 µM, 24 h, qPCR, Western blotting

T1 sequence (O08696 whole entry): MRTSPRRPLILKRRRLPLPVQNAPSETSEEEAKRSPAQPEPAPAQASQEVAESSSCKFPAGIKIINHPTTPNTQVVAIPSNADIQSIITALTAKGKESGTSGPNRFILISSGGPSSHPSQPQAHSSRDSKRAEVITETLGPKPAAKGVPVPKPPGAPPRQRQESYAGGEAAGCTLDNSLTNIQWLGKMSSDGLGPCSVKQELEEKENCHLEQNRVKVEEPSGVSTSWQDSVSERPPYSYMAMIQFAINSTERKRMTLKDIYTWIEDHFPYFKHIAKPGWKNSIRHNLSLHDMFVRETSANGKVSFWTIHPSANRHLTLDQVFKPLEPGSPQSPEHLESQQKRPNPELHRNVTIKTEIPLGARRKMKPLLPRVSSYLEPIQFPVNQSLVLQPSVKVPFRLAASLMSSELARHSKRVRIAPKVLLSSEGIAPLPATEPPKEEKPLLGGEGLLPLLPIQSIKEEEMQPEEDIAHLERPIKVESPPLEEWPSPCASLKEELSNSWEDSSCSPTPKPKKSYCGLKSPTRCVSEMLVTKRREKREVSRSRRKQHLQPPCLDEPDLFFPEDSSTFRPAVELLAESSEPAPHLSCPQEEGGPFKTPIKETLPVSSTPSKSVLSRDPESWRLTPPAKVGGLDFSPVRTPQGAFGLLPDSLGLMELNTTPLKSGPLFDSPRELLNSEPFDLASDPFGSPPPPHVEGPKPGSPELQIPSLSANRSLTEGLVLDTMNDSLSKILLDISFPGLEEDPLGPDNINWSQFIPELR
Chain of interaction between FOXM1 and β-catenin (Q08050 1-748 isoform Q08050-2): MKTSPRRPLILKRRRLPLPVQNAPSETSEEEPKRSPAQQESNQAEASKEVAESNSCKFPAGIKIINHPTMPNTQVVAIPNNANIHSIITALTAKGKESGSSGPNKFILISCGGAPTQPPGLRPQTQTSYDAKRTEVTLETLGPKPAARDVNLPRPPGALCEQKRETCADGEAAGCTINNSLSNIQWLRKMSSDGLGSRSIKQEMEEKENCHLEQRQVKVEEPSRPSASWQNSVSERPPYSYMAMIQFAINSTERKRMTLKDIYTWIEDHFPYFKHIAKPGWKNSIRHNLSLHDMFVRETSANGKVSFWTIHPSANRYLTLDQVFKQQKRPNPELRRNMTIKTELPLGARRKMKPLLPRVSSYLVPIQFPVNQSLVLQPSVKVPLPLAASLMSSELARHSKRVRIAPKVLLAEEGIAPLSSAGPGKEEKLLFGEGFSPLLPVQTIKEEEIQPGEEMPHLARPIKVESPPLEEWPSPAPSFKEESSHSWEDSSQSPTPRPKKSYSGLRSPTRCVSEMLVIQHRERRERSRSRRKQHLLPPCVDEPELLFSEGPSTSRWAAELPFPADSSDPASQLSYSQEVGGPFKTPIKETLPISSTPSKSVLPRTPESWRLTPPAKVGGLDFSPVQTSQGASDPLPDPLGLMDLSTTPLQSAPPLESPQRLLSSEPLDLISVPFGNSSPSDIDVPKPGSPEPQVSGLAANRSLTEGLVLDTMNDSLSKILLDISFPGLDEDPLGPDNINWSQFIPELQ
Chain of FOXM1:LIN9 or FOXM1: B-MYB (Q08050 1-748 isoform Q08050-2): as above

## CC[C@@H](C)[C@@H](NC(=O)[C@@H](CC(C)C)NC(=O)[C@H](NC(=O)[C@@H](CO)NC(=O)[C@@H](CS)NC(=O)CNC(=O)CNC(=O)[C@@H](C)NC(=O)[C@H]1CCCN1C(=O)[C@H](NC(=O)[C@@H](CCC(N)=O)NC(=O)[C@H]1CCCN1C(=O)[C@H]1CCCN1C(=O)CNC(=O)[C@@H](CC(C)C)NC(=O)[C@@H](CCCNC(=N)N)NC(=O)[C@H]1CCCN1C(=O)[C@@H](CCC(N)=O)NC(=O)[C@H](NC(=O)[C@H](N)CCC(N)=O)[C@H](C)O)[C@H](C)O)[C@H](C)CC)C(=O)N[C@H](Cc1ccccc1)C(=O)N[C@H](CCCNC(=N)N)C(=O)N[C@H](CCCNC(=N)N)C(=O)N[C@H](CCCNC(=N)N)C(=O)N[C@H](CCC(N)=O)C(=O)N[C@H](CCCNC(=N)N)C(=O)N[C@H](CCCNC(=N)N)C(=O)N[C@H](CCCCN)C(=O)N[C@H](CCCCN)C(=O)N[C@H](CCCNC(=N)N)C(=O)NCC(=O)O [M1-21] (H-[dQ][dT][dQ][dP][dR][dL]G[dP][dP][dQ][dT][dP][dA]GG[dC][dS][dI][dL][dI][dF][dR][dR][dR][dQ][dR][dR][dK][dK][dR]G-OH; N-terminus and C-terminus assumed)
[1]
  binding to endogenous mouse Foxm1 in Pulldown: could bind
[2]
  morphological lesions in heart, liver, spleen, lung, and kidney (H&E): no obvious morphological lesions
[3]
  inhibition of normal breast epithelial cells, in words: did not inhibit
[4]
  distribution after entering cells: distributed in cytoplasm and nucleus
[5]
  interaction of FOXM1:LIN9 or FOXM1: B-MYB (Co-IP): disrupted the interaction
[6]
  interaction between FOXM1 and β-catenin (Co-IP): disrupted the interaction
[7]; BALB/c nude mice, 30 mg/kg intraperitoneal once every two days, Day 19, n = 6
  size and weight of engrafted tumors at the end of the experiment: significantly decreased
[7]; BALB/c nude mice, 30 mg/kg intraperitoneal once every two days, n = 6, versus PBS
  growth of engrafted tumors (tumor volume): growth inhibition of engrafted tumors
[7]; Western blotting of harvested cancer tissues, Fig. S12B
  levels of FOXM1, CDC25B and PLK1 in tumor samples: decreased levels
[8]; [13]
  mice with therapeutic benefit, of the seven treated: six mice had obvious therapeutic benefits and even one mouse was cancer-free
  weight of total cancer tissue from each mouse: inhibited cancer progression
[8]; 20 mg/kg intraperitoneal once daily for 28 days, n = 7, versus PBS n = 4
  number of formed cancers: dramatically decreased
[8]; 20 mg/kg once daily for 28 days
  levels of KI-67 and CDC25B in cancer sections (immunostaining): dramatically down-regulated
[9]
  FOXM1-MuvB-mediated stimulation on the CHR-containing promoter (luciferase): abolished FOXM1-MuvB-mediated stimulation
[10]
  β-catenin-mediated stimulation on the TCF/LEF-binding promoter (luciferase): abolished β-catenin-mediated stimulation
[11]; Mantel-Cox, log rank test
  survival time of the animals: significantly prolonged
[11]; n = 6 per group, Day 1, 7, 17, organs Day 21
  metastasis of 4T1-Luc-GFP cells (in vivo luciferase imaging): prevented metastasis
[12]; [14]
  levels of epithelial marker E-cadherin: increased
  levels of mesenchymal markers Vimentin and N-cadherin: decreased
[12]; MDA-MB-231, 20 µM for 24 h, versus M1-21mut
  mRNA and protein levels of PCNA and Cyclin B1: downregulated
[12]; MDA-MB-231, 20 µM, and spontaneously developed cancer tissues, Fig. S21
  levels (mRNA or protein) of FOXM1 itself: decrease the levels
[12]; MDA-MB-231, 20 µM, qPCR 24 h, Western blotting 1.5-36 h
  mRNA and protein levels of CDC25B, PLK1 and Vimentin: dramatically repressed the expression
